Where “and” joins values, the source holds several entries; their conditions need not be identical. Identical values can stand only once. Each block holds one compound with its values, some of them ahead of it.
What was measured:
[1] = target: T1, thromboxane synthase (Human Platelet Microsomes) (Homo sapiens, UniProt P24557); assay: Thromboxane synthase inhibition, human platelet microsomes; type: biochemical; conditions: enzyme source H = Human Platelet Microsomes; read-out: IC50
T1 construct: Platelets were obtained from 320 ml of whole blood and resuspended in 5.0 ml of Krebs-Hensleit buffer; from tissue; host or cells: human platelets (microsomes, 110,000 g pellet)
T1 sequence (P24557 1-533): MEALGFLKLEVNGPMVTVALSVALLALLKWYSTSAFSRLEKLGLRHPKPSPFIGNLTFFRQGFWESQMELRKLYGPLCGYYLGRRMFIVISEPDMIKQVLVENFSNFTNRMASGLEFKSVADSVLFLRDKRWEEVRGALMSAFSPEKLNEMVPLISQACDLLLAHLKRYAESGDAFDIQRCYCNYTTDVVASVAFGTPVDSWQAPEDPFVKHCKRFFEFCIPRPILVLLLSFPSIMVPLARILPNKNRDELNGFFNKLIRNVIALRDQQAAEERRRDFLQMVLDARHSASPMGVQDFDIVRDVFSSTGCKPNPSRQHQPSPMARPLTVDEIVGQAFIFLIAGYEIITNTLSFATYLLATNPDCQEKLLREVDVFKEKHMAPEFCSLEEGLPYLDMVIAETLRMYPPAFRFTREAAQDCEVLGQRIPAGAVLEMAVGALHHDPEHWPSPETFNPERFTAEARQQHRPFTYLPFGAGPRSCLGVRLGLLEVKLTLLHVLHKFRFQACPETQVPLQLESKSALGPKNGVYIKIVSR
Description: (§1) In said assay procedure, microsomes from guinea pig lung or human platelets are added to an endoperoxide intermediate in prostaglandin biosynthesis and the inhibitor in phosphate buffer solution followed by incubation, extraction and determination of the extent of thromboxane synthase inhibition by TLC with radiochromatographic profile analysis.
(§2) Determination of Inhibition of Thromboxane Synthase Activity Isolation of Human Platelet Microsomes
Platelets were obtained from 320 ml of whole blood and resuspended in 5.0 ml of Krebs-Hensleit buffer (CA^+2 free). After three consecutive freeze-thawing cycles, homogenization and centrifugation at 12,000 g for 45 min., the 12,000 supernatant was recentrifuged at 110,000 g for 60 min. The resultant pellet was resuspended in phosphate buffer (0.5 ml, 0.1M, pH 7.5) and stored at -70° until use.
(§3) Low specific activity PGH2 (3.3 μCi/μmole) was obtained from Dr. W. E. M. Lands of the University of Michigan. PGH2 of higher specific activity (16.0 μCi/μmole) was purchased from Ran Biochemicals, Tel-Aviv, Israel.
(§4) The inhibitors tested were prepared as solutions (1-10 mg/ml) in 95% ethanol.
(§5) Assay for Thromboxane Synthase
(§6) To a 12×75 mm tube containing [1-^14 C] PGH2 (2 μg, 0.01 μCi or 0.05 μCi) and inhibitor (1 mM final assay concentration, in 10 μl of ethanol) in 225 μl of phosphate buffer (0.1M, pH 7.5), was added to an aliquot of guinea pig lung microsomes (25 μl, containing 400 μg protein) or an aliquot of human platelet microsomes (25 μl, containing .congruent.[…] protein). The solution was incubated in a 22° water bath for 2 min.; ether (1 ml) and citric acid (25 μMoles) were added, and the tube plunged into an acetone-dry ice bath. The ether extract was transferred to a 1.0 ml Reacti-vial, and the volume reduced under nitrogen to .congruent.50 μl.
(§7) The extract was applied to an I.T.L.C., type SG, glass fiber sheet (Gelman Instrument Co., Ann Arbor, Mich.) and developed in isooctane; methyl ethyl ketone: acetic acid (100:19:1 or 100:9:1) (19). The sheets were air dried and scanned using a Berthold LB 2760 Radiochromatographic Scanner. In certain cases, based on the radiochromatographic profile obtained, the sheets were cut, the appropriate regions placed in scintillation vials, 10 ml of LSC cocktail (Yorktown Research, S. Hackensack, NJ) added, and the relative cpm determined.

[2] = target: TXA2 Synthase; assay: TXA2 synthase IC50 as listed in Table I (enzyme source not stated); type: biochemical
Description: as §2, §5, §6, §7

[3] = system: isolated perfused rat pancreas; assay: Insulin secretion by isolated perfused rat pancreas; parameters: key: insulin AUC ratio: 1st glucose pulse / 2nd pulse with compound; conditions: 16.7 mM glucose, control 1.0 ± 0.04 (n = 5)
Description: Determination of Insulin-Secretory Activity in the Isolated Perfused Rat Pancreas
Pancreata were obtained from young adult female Charles River rats weighing from 200-300 g. The animals were anaesthesized with sodium pentobarbitol (45 mg/kg), injected intraperitoneally, and the pancreas with its intact vasculature was removed and connected to an extracorporeal perfusion apparatus.
The basic perfusion solution contained: 133 mM NaCl, 4.4 mM KCl, 2.5 mM MgSO4, 2.4 mM Ca gluconate, 1.5 mM KH2 PO4, 29.4 mM NaHCO3, 4% dextran and 0.2% bovine serum albumin and glucose as discussed below. The perfusion flow rate was kept constant at 4 ml/min. After a 15-20 min equilibration period, the experimental protocol was begun. The pancreatic effluent was collected in either one or four-minute fractions.
The perfusion was run in the following sequence:
30 min 16.7 mM glucose-internal control
30 min 16.7 mM glucose and test compound
5 min 20 mM arginine-to check pancreas viability
Test compounds were dissolved in 90% ethanol to a concentration of 25 mM and then diluted in the perfusion buffer to the desired concentration. The perfusion effluent was collected in one or four min fractions-the samples were checked immediately, aliquoted for submission to radioimmunoassay and stored at -20° C. until the time of assay. The radioimmunoassay of insulin was carried out by a back-titration method using a pure rat insulin standard.
To assess the inhibitory activity of the test compounds, an inhibition index was calculated. The inhibition index is derived by comparing the insulin secretion response from treated versus nontreated pancreas preparations. For each preparation, a ratio of insulin secretion was calculated from the area under the insulin secretion curve of the first pulse of 16.7 mM glucose divided by the area under the curve of the second pulse of 16.7 mM glucose containing compound.

[4] = system: obese Zucker rats; assay: Antiobesity activity in vivo in obese Zucker rats; parameters: species or system rat; conditions: 16 to 18 days; for Body Weight Gain: treated minus control
Description: Determination of Antiobesity Activity
Thromboxane synthase inhibitors were evaluated for antiobesity activity in vivo. Body weight, food intake and circulating insulin levels were monitored during periods of drug treatment. Analysis of carcass composition was performed at study termination.
Animals, Diets and Drug Administration
Lean and obese male and female Zucker rats bred at Hoffmann-La Roche Inc. (Nutley, NJ) were kept in wire-bottomed individual cages in light (12 hr dark and light cycles beginning at 6 p.m. and 6 a.m., respectively) and temperature-controlled (22°) rooms. All rats were fed chow diet (Ralston Purina Co., St. Louis, MO) ad libitum until one to three weeks before the start of drug treatment, at which time they were trained to consume a high glucose low fat (1% corn oil) diet which is herein referred to as G-70:1% CO. Following the one to three-week training period on G-70:1% CO, the average daily food intake was calculated, and the rats were weighed and divided into groups of four to seven rats each.
The control animals continued to eat the G-70:1% CO diet ad libitum, and the experimental groups were given G-70:1% CO diet containing drug (also fed ad libitum). The amount of drug added to the diet of each experimental group was based on calculations of food consumed per kg body weight using data collected at the end of the training period. […] The period of drug treatment ranged from 16 to 18 days as noted in the legends to the tables and graph. Food intake and body weight were recorded either daily or twice a week throughout the duration of the study. The amount of drug administered was calculated from the food intake per kg body weight for each experimental group. Body weight data are reported as the difference between the body weight gains of control and drug-treated animals. Food intake and insulin data are reported as percent of control.
^a Average duration of treatment was 16 to 18 days.
^b Body weight gain was computed by taking the difference between the
weight gain of treated and control rats.

[5] = target: T2, thromboxane synthase (Guinea Pig Lung Microsomes) (Cavia porcellus, UniProt H0UT36); assay: biochemical; conditions: enzyme source G = Guinea Pig Lung Microsomes; read-out: IC50
T2 construct: The lungs were removed, freed of trachea and the majority of blood removed by rinsing the lungs with buffer; from tissue; host or cells: lungs of male guinea pigs (microsomes, 110,000 g pellet)
T2 sequence (H0UT36 entry or part of it): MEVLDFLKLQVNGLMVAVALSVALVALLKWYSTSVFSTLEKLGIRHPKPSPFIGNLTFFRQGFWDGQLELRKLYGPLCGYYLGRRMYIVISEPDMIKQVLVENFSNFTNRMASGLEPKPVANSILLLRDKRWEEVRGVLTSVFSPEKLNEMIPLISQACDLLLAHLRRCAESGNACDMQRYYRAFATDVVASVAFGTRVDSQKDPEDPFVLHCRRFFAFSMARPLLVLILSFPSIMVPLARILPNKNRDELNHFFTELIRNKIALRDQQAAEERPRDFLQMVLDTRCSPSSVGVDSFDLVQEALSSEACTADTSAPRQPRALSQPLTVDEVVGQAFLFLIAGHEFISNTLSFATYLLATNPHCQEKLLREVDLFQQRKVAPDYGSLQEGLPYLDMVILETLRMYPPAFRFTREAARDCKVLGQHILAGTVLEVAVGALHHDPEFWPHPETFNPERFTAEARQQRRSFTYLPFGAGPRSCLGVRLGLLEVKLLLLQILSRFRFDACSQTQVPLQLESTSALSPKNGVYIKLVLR
Description: as §1, with “analysis. […]” for “analysis.”
Isolation of Guinea Pig Lung Microsomes
Four male guinea pigs (.congruent.500 g each) were sacrificed by spinal dislocation. The lungs were removed, freed of trachea and the majority of blood removed by rinsing the lungs with buffer (0.1M phosphate pH 7.5) via the pulmonary artery. The lung tissue (18.3 g total wet wt.), was then minced, suspended in three volumes of buffer and homogenized using, initially, a Brinkmann polytron homogenizer and, finally, a glass-teflon tissue grinder. The homogenate was centrifuged at 12,000 g for 1 hr. and the resultant supernatant recentrifuged at 110,000 g for 1 hr. The 110,000 g pellet was taken up in 10 ml of buffer, divided into 5×2 ml aliquots and stored at -70° until use.
as §3, §4, §5, §6, §7

[6] = system: thromboxane synthase from human platelets; conditions: highest potency among the imidazole derivatives tested; read-out: I50; cited from earlier work
[7] = system: thromboxane synthetase (rabbit platelet microsomes); conditions: result in words; cited from earlier work

IC50 [1]: ~10000 nM
IC50 [2]: 10 µM
Structure (SMILES): CC(C)Oc1ccc(-n2ccnc2)cc1 [1-[4-(1-methylethoxy)phenyl]-1H-imidazole]
Insulin Secretion Inhibition Index ([3]; 100 μM): 4
Food Consumption ([4]; 82 mg/kg in diet, P ≤ 0.05): 80 ± 2 % of control
Insulin ([4]; 82 mg/kg in diet, not marked significant): 94 ± 21 % of control
Body Weight Gain ([4]; 82 mg/kg in diet, P ≤ 0.05): -18 g

Structure (SMILES): c1c[nH]cn1 [1H--imidazole, reference compound]
IC50 [5]: > 100 µM and < 1000 µM
IC50 [2]: 600 µM
Insulin Secretion Inhibition Index ([3]; 100 μM): 2
Insulin Secretion Inhibition Index ([3]; 1000 μM): 3

IC50 [1]: ~1000 nM
Structure (SMILES): CC(C)c1ccccc1-n1ccnc1 [1-[2-(1-methylethyl)phenyl]-1H--imidazole]
IC50 [6]: ~10 nM

Structure (SMILES): CCCCCCCCCn1ccnc1 [1-nonyl-1H--imidazole]
IC50 [6]: ~10 nM

IC50 [1]: ~1000 nM
IC50 [2]: 1 µM
Structure (SMILES): c1ccc2c(Cn3ccnc3)c[nH]c2c1 [3-(1H--imidazol-1-ylmethyl)-1H--indole, 3-(1H-imidazol-1-ylmethyl)-1H-indole]
Insulin Secretion Inhibition Index ([3]; 10 μM): 1
Insulin Secretion Inhibition Index ([3]; 50 μM): 13
Insulin Secretion Inhibition Index ([3]; 100 μM): 32
Food Consumption ([4]; 18 mg/kg in diet, P ≤ 0.05): 81 ± 1 % of control
Insulin ([4]; 18 mg/kg in diet, P ≤ 0.05): 72 ± 9 % of control
Body Weight Gain ([4]; 18 mg/kg in diet, P ≤ 0.05): -24 g
Food Consumption ([4]; 55 mg/kg in diet, P ≤ 0.05): 63 ± 4 % of control
Insulin ([4]; 55 mg/kg in diet, P ≤ 0.05): 12 ± 2 % of control
Body Weight Gain ([4]; 55 mg/kg in diet, P ≤ 0.05): -68 g

IC50 [5]: 10 to 100 µM
IC50 [2]: 15 µM
Structure (SMILES): S=C(n1ccnc1)n1ccnc1 [1,1'-carbonothioylbis-1H--imidazole, 1,1'-carbonothioylbis-1H-imidazole]
Insulin Secretion Inhibition Index ([3]; 1000 μM): 5

IC50 [1]: 10000 to 100000 nM
IC50 [5]: 10 to 100 µM
IC50 [2]: 10 to 100 µM
Structure (SMILES): c1ccc(C(c2ccccc2)(c2ccccc2)n2ccnc2)cc1 [1-(triphenylmethyl)-1H--imidazole, 1-(triphenylmethyl)-1H-imidazole]
Insulin Secretion Inhibition Index ([3]; 10 μM): 2

IC50 [1]: ~1000 nM
IC50 [2]: 1 µM
Structure (SMILES): CC(C)c1[nH]c2ccccc2c1C(=O)c1cccnc1 [[2-(1-methylethyl)-1H-indol-3-yl)]-3-pyridinyl-methanone]
Insulin Secretion Inhibition Index ([3]; 100 μM): 5
Food Consumption ([4]; 94 mg/kg in diet, not marked significant): 89 ± 4 % of control
Body Weight Gain ([4]; 94 mg/kg in diet, P ≤ 0.05): -17 g

Structure (SMILES): c1ccncc1 [pyridine]
enzymatic formation of TXB2 from PGH2 [7]: inhibition
